Experimental data from patent publication US9469668B2, “Magnetic substance” (IHI CORPORATION, priority 2013, dated 2016).

Experiments:
[1] = Saturation magnetization measurement (magnetic property evaluation device MPMS7); format: physicochemical
Description: The measurement was conducted based on a magnetic property evaluation device MPMS7 manufactured by Kantum.

[2] = Particle diameter of single crystal by transmission electron microscope; format: physicochemical; details: single crystal of the salen complex having the highest ferromagnetic property; TEM, 140 samples
Description: A used device, conditions, and so on are as follows. Device: transmission electron microscope (H-7100FA manufactured by Hitachi) Conditions: acceleration voltage 100 kV Sample adjustment: dispersion method (after the salen complex was ground with a mortar, pure water was added to the ground salen complex, which was then dispersed in a grid by TEM) Grain size distribution measurement software: Image-Pro plus (Media cybermetrics, MD, U.S.A.) Measured target: traced images of the iron-salen complex in TEM photographs Number of samples: 140

saturation magnetization ([1]; crystals having the highest magnetic property among 5-6 iron-salen complex preparations): 1.25 emu/g
saturation magnetization ([1]; crystals having the lowest magnetic property among those complexes): 0.02 emu/g
average particle diameter [2]: 450 nm
Structure (SMILES): Oc1ccccc1C=NCCN=Cc1ccccc1O.[Fe+2] [iron-salen complex, N,N′-bis(salicylidene)ethylenediamine iron(II)]
